Laboratory results taken from PubChem BioAssay AID330 (DTP/NCI, 2004).
Where “and” joins values, the source holds several entries; their conditions need not be identical. Identical values can stand only once. Inconclusive results and toxic doses are left out. Square brackets hold non-standard residues; d marks the D form. Peptide text beside a SMILES is read from it. ξ: configuration not given here. ξY = NC(Cc1ccc(O)cc1)C(=O)O

Test system: P388 leukemia ip, CD2F1 mice, survival T/C
Assay: NCI In Vivo Anticancer Drug Screen. Data for tumor model P388 Leukemia (intraperitoneal) in CD2F1 (CDF1) mice
Conditions: endpoint: median survival time, higher = longer survival
In short: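 Mice carrying the transplanted tumor received test compound or vehicle. Survival was recorded in each group, and the value is the treated-group measurement divided by that of the vehicle-treated control group.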

[1] = dose: 100.0 mg/kg/injection, schedule: Q01DX009 (ip), vehicle: saline
[2] = dose: 200.0 mg/kg/injection, schedule: Q01DX009 (ip), vehicle: saline
[3] = dose: 50.0 mg/kg/injection, schedule: Q01DX009 (ip), vehicle: Klucel (hydroxypropylcellulose) (HPC)
[4] = dose: 100.0 mg/kg/injection, schedule: Q01DX009 (ip), vehicle: Klucel (hydroxypropylcellulose) (HPC)
[5] = dose: 200.0 mg/kg/injection, schedule: Q01DX009 (ip), vehicle: Klucel (hydroxypropylcellulose) (HPC)
[6] = dose: 100.0 mg/kg/injection, schedule: Q01DX001 (ip), vehicle: Klucel (hydroxypropylcellulose) (HPC)
[7] = dose: 200.0 mg/kg/injection, schedule: Q01DX001 (ip), vehicle: Klucel (hydroxypropylcellulose) (HPC)
[8] = dose: 400.0 mg/kg/injection, schedule: Q01DX001 (ip), vehicle: Klucel (hydroxypropylcellulose) (HPC)
[9] = dose: 50.0 mg/kg/injection, schedule: Q01DX009 (ip), vehicle: saline with Tween-80
[10] = dose: 100.0 mg/kg/injection, schedule: Q01DX009 (ip), vehicle: saline with Tween-80
[11] = dose: 200.0 mg/kg/injection, schedule: Q01DX009 (ip), vehicle: saline with Tween-80
[12] = dose: 50.0 mg/kg/injection, schedule: Q01DX009 (ip), vehicle: saline
[13] = dose: 12.5 mg/kg/injection, schedule: Q01DX009 (ip), vehicle: Klucel (hydroxypropylcellulose) (HPC)
[14] = dose: 25.0 mg/kg/injection, schedule: Q01DX009 (ip), vehicle: Klucel (hydroxypropylcellulose) (HPC)
[15] = dose: 400.0 mg/kg/injection, schedule: Q01DX009 (ip), vehicle: saline with Tween-80

With `NCC(=O)NC(Cc1ccc(O)cc1)C(=O)O` (configuration not stated) (H-Gly-[ξY]-OH) the T/C [1] was 113 % of control, the T/C (dose: 100.0 mg/kg/injection, schedule: Q04DX003 (ip), vehicle: saline) was 98 % of control and the T/C [2] was 101 % of control. The T/C (dose: 200.0 mg/kg/injection, schedule: Q04DX003 (ip), vehicle: saline) was 105 % of control, the T/C (dose: 400.0 mg/kg/injection, schedule: Q01DX009 (ip), vehicle: saline) was 105 % of control and the T/C (dose: 400.0 mg/kg/injection, schedule: Q04DX003 (ip), vehicle: saline) was 104 % of control.
For `O=P(c1cccs1)(c1cccs1)c1cccs1`, the T/C [3] was 96 % of control, the T/C [4] was 92 % of control and the T/C [5] was 101 % of control.
For `O=C1CC(C2(c3ccc4c(c3)OCO4)SCCCS2)CO1` (configuration not stated), the T/C [6] was 101 % of control, the T/C [7] was 106 % of control and the T/C [8] was 99 % of control.
In the case of `CC(C)c1ccc(C(=O)O)cc1`, the T/C [9] is reported as 103 % of control, the T/C [10] is reported as 103 % of control and the T/C [11] is reported as 115 % of control.
`Cc1ccccc1N1CCN(c2ccccc2C)C1=C1N(c2ccccc2C)CCN1c1ccccc1C` was tested, and the T/C (dose: 85.0 micrograms/kg/injection, schedule: Q01DX009 (ip), vehicle: DMSO) was 101 % of control, the T/C (dose: 190.0 micrograms/kg/injection, schedule: Q01DX009 (ip), vehicle: DMSO) was 93 % of control and the T/C (dose: 380.0 micrograms/kg/injection, schedule: Q01DX009 (ip), vehicle: DMSO) was 93 % of control.
For `CC(C)CC(N)C(=O)NC(Cc1c[nH]c2ccccc12)C(N)=O` (configuration not stated), the T/C [12] was 93 % of control, the T/C [1] was 98 % of control and the T/C [2] was 99 % of control.
In the case of `CSC(=S)SC(SC)S(C)(=O)=O` (configuration not stated), the T/C (dose: 3.12 mg/kg/injection, schedule: Q01DX009 (ip), vehicle: Klucel (hydroxypropylcellulose) (HPC)) is reported as 103 % of control, the T/C (dose: 6.25 mg/kg/injection, schedule: Q01DX009 (ip), vehicle: Klucel (hydroxypropylcellulose) (HPC)) is reported as 112 % of control and the T/C [13] is reported as 110 % of control and 117 % of control. The T/C [14] was 93 % of control.
With `CN(C)Sc1ccc(Cl)cc1[N+](=O)[O-]` the T/C [9] was 109 % of control, the T/C [10] was 100 % of control and the T/C [1] was 97 % of control. For the same molecule, the T/C [11] was 106 % of control and the T/C [2] was 97 % of control.
`CCC(=O)c1nc(N)[nH]c1CC` was tested, and the T/C (dose: 2.5 mg/kg/injection, schedule: Q01DX005 (ip), vehicle: Klucel (hydroxypropylcellulose) (HPC)) was 101 % of control, the T/C (dose: 5.0 mg/kg/injection, schedule: Q01DX005 (ip), vehicle: Klucel (hydroxypropylcellulose) (HPC)) was 93 % of control and the T/C (dose: 10.0 mg/kg/injection, schedule: Q01DX005 (ip), vehicle: Klucel (hydroxypropylcellulose) (HPC)) was 102 % of control.
With `CCOC(=O)Nc1cc(NC(C)CCCN(CC)CC)c2ncc(-c3cc(OC)c(OC)c(OC)c3)nc2n1` (configuration not stated) (tested in a mixture with another compound) the T/C (dose: 66.0 mg/kg/injection, schedule: Q01DX009 (ip), vehicle: saline) was 118 % of control, the T/C [1] was 109 % of control and the T/C (dose: 150.0 mg/kg/injection, schedule: Q01DX009 (ip), vehicle: saline) was 104 % of control.
With `CN1CCN2c3ccccc3Cc3ccccc3C2C1` (configuration not stated) the T/C (dose: 6.25 mg/kg/injection, schedule: Q01DX009 (ip), vehicle: saline) was 90 % of control, the T/C (dose: 12.5 mg/kg/injection, schedule: Q01DX009 (ip), vehicle: saline) was 94 % of control and the T/C (dose: 25.0 mg/kg/injection, schedule: Q01DX009 (ip), vehicle: saline) was 105 % of control and 107 % of control. For the same molecule, the T/C [12] was 118 % of control and 119 % of control.
In the case of `O=C(Nc1nccs1)C(F)(F)F`, the T/C [9] is reported as 104 % of control, the T/C [10] is reported as 104 % of control and the T/C [11] is reported as 99 % of control. The T/C [15] was 108 % of control.
`O=c1[nH][nH]c(=O)c2c1CCC2` was tested, and the T/C (dose: 6.25 mg/kg/injection, schedule: Q01DX009 (ip), vehicle: distilled water + Tween-80) was 100 % of control, the T/C (dose: 12.5 mg/kg/injection, schedule: Q01DX009 (ip), vehicle: distilled water + Tween-80) was 100 % of control and the T/C (dose: 25.0 mg/kg/injection, schedule: Q01DX009 (ip), vehicle: distilled water + Tween-80) was 100 % of control. The T/C (dose: 50.0 mg/kg/injection, schedule: Q01DX009 (ip), vehicle: distilled water + Tween-80) was 107 % of control, the T/C (dose: 100.0 mg/kg/injection, schedule: Q01DX009 (ip), vehicle: distilled water + Tween-80) was 103 % of control and the T/C (dose: 200.0 mg/kg/injection, schedule: Q01DX009 (ip), vehicle: distilled water + Tween-80) was 100 % of control.
`C1=C[N-]c2c3c(ccc2=C1)=CC=C[N-]3.N#[O+].O.O=N[O-].O=N[O-].[Ru+2]` was tested, and the T/C (dose: 3.13 mg/kg/injection, schedule: Q04DX003 (ip), vehicle: water) was 107 % of control and the T/C (dose: 12.5 mg/kg/injection, schedule: Q04DX003 (ip), vehicle: water) was 121 % of control.
With `COC(=O)C1(CC(=O)C(C)(C)C)NC(=S)NC(=O)C1C#N` (configuration not stated) the T/C (dose: 60.0 mg/kg/injection, schedule: Q01DX005 (ip), vehicle: saline) was 107 % of control, the T/C (dose: 120.0 mg/kg/injection, schedule: Q01DX005 (ip), vehicle: saline) was 101 % of control and the T/C (dose: 240.0 mg/kg/injection, schedule: Q01DX005 (ip), vehicle: saline) was 97 % of control.
With `CSc1nc(Cl)c2cn[nH]c2n1` the T/C (dose: 100.0 mg/kg/injection, schedule: Q04DX002 (ip), vehicle: water) was 116 % of control and the T/C (dose: 200.0 mg/kg/injection, schedule: Q04DX002 (ip), vehicle: water) was 109 % of control.
With `O=C1Nc2cc3c(cc2C(=O)N2C/C(=N/O)CC12)OCO3` (configuration not stated) the T/C (dose: 50.0 mg/kg/injection, schedule: Q01DX005 (ip), vehicle: saline with Tween-80) was 107 % of control, the T/C (dose: 100.0 mg/kg/injection, schedule: Q01DX005 (ip), vehicle: saline with Tween-80) was 99 % of control and the T/C (dose: 200.0 mg/kg/injection, schedule: Q01DX005 (ip), vehicle: saline with Tween-80) was 101 % of control.
`C[C@]12CC[C@H](OC(=O)COc3ccc(N(CCCl)CCCl)cc3)C[C@@H]1CC[C@@H]1[C@@H]2CC[C@]2(C)NC(=O)CC[C@@H]12` was tested, and the T/C (dose: 2.0 mg/kg/injection, schedule: Q01DX009 (ip), vehicle: saline with Tween-80) was 120 % of control, the T/C (dose: 8.0 mg/kg/injection, schedule: Q01DX009 (ip), vehicle: saline with Tween-80) was 151 % of control and 157 % of control and 192 % of control and the T/C (dose: 16.0 mg/kg/injection, schedule: Q01DX009 (ip), vehicle: saline with Tween-80) was 180 % of control and 184 % of control and 192 % of control. The T/C (dose: 32.0 mg/kg/injection, schedule: Q01DX009 (ip), vehicle: saline with Tween-80) was 107 % of control and 180 % of control and 217 % of control.
For `O/N=C(/Cc1nc2cc(Cl)c(Cl)cc2nc1C/C(=N/O)c1ccc(Cl)cc1)c1ccc(Cl)cc1`, the T/C (dose: 60.0 mg/kg/injection, schedule: Q01DX005 (ip), vehicle: saline with Tween-80) was 99 % of control, the T/C (dose: 120.0 mg/kg/injection, schedule: Q01DX005 (ip), vehicle: saline with Tween-80) was 99 % of control and the T/C (dose: 240.0 mg/kg/injection, schedule: Q01DX005 (ip), vehicle: saline with Tween-80) was 107 % of control.
With `Nc1ccccc1SC1CC(=O)N(c2ccc(Cl)cc2)C1=O` (configuration not stated) the T/C [10] was 105 % of control, the T/C [11] was 110 % of control and the T/C [15] was 100 % of control.
In the case of `Nc1ccccc1N`, the T/C (dose: 25.0 mg/kg/injection, schedule: Q01DX009 (ip), vehicle: saline with Tween-80) is reported as 95 % of control, the T/C [10] is reported as 120 % of control and the T/C (dose: 100.0 mg/kg/injection, schedule: Q04DX003 (ip), vehicle: saline sonified) is reported as 100 % of control. For the same molecule, the T/C [11] was 185 % of control.
For `CC1(C)N=C(N)N=C(N)N1c1cccc(C(=O)O)c1`, the T/C (dose: 25.0 mg/kg/injection, schedule: Q01DX005 (ip), vehicle: Klucel (hydroxypropylcellulose) (HPC)) was 117 % of control, the T/C (dose: 50.0 mg/kg/injection, schedule: Q01DX005 (ip), vehicle: Klucel (hydroxypropylcellulose) (HPC)) was 100 % of control and the T/C (dose: 100.0 mg/kg/injection, schedule: Q01DX005 (ip), vehicle: Klucel (hydroxypropylcellulose) (HPC)) was 107 % of control.
For `COc1cc2c(/C=N/Nc3ccccc3[N+](=O)[O-])c(Cl)[nH]c2cc1C`, the T/C (dose: 50.0 mg/kg/injection, schedule: Q01DX001 (ip), vehicle: Klucel (hydroxypropylcellulose) (HPC)) was 107 % of control, the T/C [6] was 98 % of control and 87 % of control and the T/C [7] was 98 % of control and 87 % of control. For the same molecule, the T/C [8] was 90 % of control.
In the case of `N#C/C(=C/c1ccco1)c1ccccc1`, the T/C [13] is reported as 95 % of control and the T/C [14] is reported as 88 % of control.
In the case of `C=[CH][Sn](=[O])[CH]=C`, the T/C [12] is reported as 104 % of control, the T/C [1] is reported as 105 % of control and 89 % of control and the T/C [2] is reported as 104 % of control and 88 % of control.
`CC(C)NC1CC2CCCCC2CC1c1ccccc1` (configuration not stated) was tested, and the T/C [6] was 93 % of control, the T/C [7] was 93 % of control and the T/C [8] was 88 % of control.
With `CC(=O)c1cccc(NC(=O)C2C(=O)C(=O)N(c3cccc(C(C)=O)c3)C2=O)c1` (configuration not stated) the T/C [3] was 91 % of control, the T/C [4] was 104 % of control and the T/C [5] was 101 % of control.
